In patent US20220403326A1, “MEDIA FORMULATIONS AND METHODS FOR PRODUCING PROGENITOR T CELLS” (priority 2019, published 2022):

Assays:
Format in all cases: cell-based, human
[1] = test system: HSPCs; assay: CFSE proliferation assay of HSPCs on DL4+VCAM-1
Method: To track the number of cell divisions, cells were stained with 2.5 μM CellTrace™ CFSE (ThermoFisher) in PBS and incubated at 37° C. for 8 minutes. CFSE was quenched by adding 5 times the volume of IMDM+BIT and incubating at 37° C. for 5 minutes. Cells were then resuspended in fresh media and seeded on DL4+VCAM-1 for culture. For analysis, cells were collected and stained for CD34, CD7, and CD5 surface markers as described above and analyzed using flow cytometry. Proliferation was modelled using FlowJo™ software and further analysis was performed with R.
To track the number of cell divisions in response to each of IL-3 and TNFα, the HSPCs were first stained with carboxyfluorescein succinimidyl ester (CFSE). IL-3 or TNFα were added on day 0 and the number of divisions of each cell was analyzed on days 2, 3, 4 and 5.

[2] = test system: HSPCs; assay: DL4 coating concentration titration, 14-day culture, with or without TNFα; details: lowest DL4 concentration tested; 14 days; with VCAM-1
Method: Tissue culture 96-well plates were coated with DL4-Fc and VCAM-1-Fc (R&D Systems) overnight at 4° C. or for 3-4 hours at room temperature. To coat, DL4 and VCAM-1 were diluted to 15 μg/ml and 2.5 μg/ml, respectively, in 50 μl of phosphate-buffered saline (PBS), resulting in a coating concentration of approximately 24 ng/mm2 of DL4-Fc and 4 ng/mm2 of VCAM-1-Fc. For titration experiments, the concentration of DL4 or VCAM-1 was adjusted accordingly while maintaining a 50 μl volume of PBS. Experiments using 384-well plates scaled were coated similarly but with 16 μl of PBS. Wells were washed once with PBS prior to seeding cells to remove unbound DL4-Fc protein that inhibits Notch signaling.^6
In parallel with the Notch pathway inhibition experiment described above, HSPCs were also seeded on DL4+VCAM-1 for 14 days with decreasing concentrations of DL4 (FIG. 4d). […] Representative flow cytometry plots showing differential proT cell induction with decreasing DL4 concentration in the presence or absence of TNFα are shown in FIG. 4f.

[3] = test system: CD34+ HSPCs; assay: Surface expression of CD117, CD123 and CD127 after 24 hours of TNFα stimulation; details: TNFα stimulation for 24 hours
Method: Prior to analysis via flow cytometry, adherent cells were collected from DL4+VCAM-1 surfaces using vigorous pipetting or TrypLE Express Enzyme (ThermoFisher) for 5 minutes at 37° C. Afterwards, cells were rinsed twice with Hanks Balanced Salt Solution (ThermoFisher) plus 2% FBS (HF). Surface antibodies were stained at 1:100-1:300 in HF at room temperature for 15 minutes. Cells were then rinsed once with HF and resuspended in HF with 1:1000 7-AAD to exclude dead cells. Data was acquired with a BD Fortessa™ and compensation and gating was performed with FlowJo™ software and further analysis with the R programming language (version 3.3.2).
Next, the expression of CD117 (c-kit; SCF receptor), CD123 (IL-3 receptor) and CD127 (IL-7 receptor) on CD34+ HSPCs was evaluated in the presence or absence of TNFα stimulation for 24 hours.

[4] = test system: CD34+ HSPCs; assay: TPO requirement with or without TNFα, 14-day culture; details: 14 days
Method: To assess the requirement for TPO in T lineage development, CD34+ HSPCs were analyzed by flow cytometry after 14 days in the presence or absence of TNFα, and further in the presence or absence of TPO.

[5] = test system: Notch target genes in CD34+ HSPCs (CD38lo/− and CD38+ fractions); assay: qRT-PCR of Notch target and pro-myeloid genes after 5 days of culture
Excerpt: Umbilical cord blood (UCB) was collected from consenting donors at Mount Sinai Hospital, Toronto, Ontario, in accordance with institutional research ethics board policies. Mononuclear cells were fractioned via centrifugation using Lympholyte cell separation media (Cedarlane) and red blood cells were lysed using ammonium-chloride-potassium (ACK) lysing buffer prepared in-house. Mononuclear cells were enriched for >90% CD34+ cells using EasySep™ Human CD34+ Positive Selection Kit (Stemcell Technologies) according to the manufacturer's instructions. For certain experiments, enriched CD34+ cells were stained with CD34-APC and CD38-PE antibodies and sorted into CD34+CD38lo/− and CD34+CD38+ fractions using FACS Aria flow cytometer ([…]).
Cells were lysed and RNA isolated using the PureLink™ RNA Micro Kit (Invitrogen) according to the manufacturer's protocol. cDNA was reverse-transcribed from RNA using SuperScript™ III Reverse Transcriptase (Invitrogen) according to the manufacturer's protocol. cDNA was amplified with primers and FastStart SYBR Green Mastermix (Roche) using QuantStudio™ 6 Flex (Applied Biosystems). Relative expression of individual genes was calculated by the delta cycle threshold (ΔCt) method and normalization using β-actin to control for differences in input cDNA.
TNFα activates the NF-KB pathway, which may regulate Notch target genes or regulate Notch itself (FIG. 3a). To investigate if and how TNFα interacts with Notch, CD34+ HSPCs were first sorted into CD38lo/− and CD38+ fractions, and seeded separately on DL4+VCAM-1 with and without TNFα. Gene expression was measured using qPCR after 5 days of culture (FIG. 3b).

[6] = both CD38lo/− and CD38+ fractions, normalized to β-actin

Substance: TNFα
- proportion of proT2 (CD34+CD7+CD5+) cells ([1]; day 5): higher proportion of proT2 cells
- upregulation of CD7 ([1]; days 2-5): slow to upregulate CD7
- DL4 coating concentration down to which CD7+CD5+ proT cell development is maintained [2]: ≤ 2 ng/mm^2
- frequency of CD123+ cells [3]: significant increase
- median fluorescent intensity (MFI) of CD123 [3]: increase in the median fluorescent intensity
- T lineage development in the absence of TPO [4]: supports T lineage development in the absence of TPO
- expression of any other Notch target genes or NOTCH1 itself [5]: No significant differences
- SPI1 expression ([5]; CD38lo/− but not CD38+ HSPCs): downregulated SPI1 slightly
- GATA3 expression [5, 6]: upregulated
- TCF7 expression [5, 6]: upregulated
- BCL11b expression ([5]; only CD38lo/− HSPCs): upregulated
- CEBPA expression ([5]; only the CD38+ fraction): significantly downregulated
